The series has as its system rodent lifetime carcinogenesis bioassay, tumor incidence TD50. As to the kind of experiment: carcinogenic potency in animals, long-term in vivo studies, CPDB compilation (AID 1745844). To be noted: mouse, strain B6C3F1, in feed, dosed 81 weeks, study length 81 weeks.

Usually TD50 stands for the dose at which the toxic effect under study appears in half of the subjects. For `Cc1ccc2ccccc2c1`, the TD50 came to 6060 mg/kg/day (females, site: liver, lesion: hepatocellular adenoma); 4010 mg/kg/day (females, site: lung, lesion: several types, types named in the paper); 735 mg/kg/day (males, site: lung, lesion: alveolar/bronchiolar adenoma); 2780 mg/kg/day (males, site: lung, lesion: alveolar/bronchiolar carcinoma); 205 mg/kg/day (males, site: lung, lesion: several types, types named in the paper).

Values taken from PubChem BioAssay AID1745844 (Carcinogenic Potency Database (CPDB), 2022).
